{"source": "paper PMC10805800", "about": "(Cell Discovery, 2024)", "format_in_all_cases": "binding", "key": {"[1]": {"target": "T1, LRRK2 (Leucine-rich repeat kinase 2) (Homo sapiens, UniProt Q5S007)", "T1 construct": "full-length LRRK2", "assay": "cryo-EM structure at […] Å; also ADP-Glo kinase inhibition (RCKWm)"}, "[2]": {"target": "T2, LRRK2 (Leucine-rich repeat kinase 2) (Homo sapiens, UniProt Q5S007, M1732R)", "T2 construct": "LRRK2^RCKWm (ROC-COR-KIN-WD40, without ARM-ANK-LRR domains)", "T2 sequence (Q5S007 1327-2527 M1732R)": "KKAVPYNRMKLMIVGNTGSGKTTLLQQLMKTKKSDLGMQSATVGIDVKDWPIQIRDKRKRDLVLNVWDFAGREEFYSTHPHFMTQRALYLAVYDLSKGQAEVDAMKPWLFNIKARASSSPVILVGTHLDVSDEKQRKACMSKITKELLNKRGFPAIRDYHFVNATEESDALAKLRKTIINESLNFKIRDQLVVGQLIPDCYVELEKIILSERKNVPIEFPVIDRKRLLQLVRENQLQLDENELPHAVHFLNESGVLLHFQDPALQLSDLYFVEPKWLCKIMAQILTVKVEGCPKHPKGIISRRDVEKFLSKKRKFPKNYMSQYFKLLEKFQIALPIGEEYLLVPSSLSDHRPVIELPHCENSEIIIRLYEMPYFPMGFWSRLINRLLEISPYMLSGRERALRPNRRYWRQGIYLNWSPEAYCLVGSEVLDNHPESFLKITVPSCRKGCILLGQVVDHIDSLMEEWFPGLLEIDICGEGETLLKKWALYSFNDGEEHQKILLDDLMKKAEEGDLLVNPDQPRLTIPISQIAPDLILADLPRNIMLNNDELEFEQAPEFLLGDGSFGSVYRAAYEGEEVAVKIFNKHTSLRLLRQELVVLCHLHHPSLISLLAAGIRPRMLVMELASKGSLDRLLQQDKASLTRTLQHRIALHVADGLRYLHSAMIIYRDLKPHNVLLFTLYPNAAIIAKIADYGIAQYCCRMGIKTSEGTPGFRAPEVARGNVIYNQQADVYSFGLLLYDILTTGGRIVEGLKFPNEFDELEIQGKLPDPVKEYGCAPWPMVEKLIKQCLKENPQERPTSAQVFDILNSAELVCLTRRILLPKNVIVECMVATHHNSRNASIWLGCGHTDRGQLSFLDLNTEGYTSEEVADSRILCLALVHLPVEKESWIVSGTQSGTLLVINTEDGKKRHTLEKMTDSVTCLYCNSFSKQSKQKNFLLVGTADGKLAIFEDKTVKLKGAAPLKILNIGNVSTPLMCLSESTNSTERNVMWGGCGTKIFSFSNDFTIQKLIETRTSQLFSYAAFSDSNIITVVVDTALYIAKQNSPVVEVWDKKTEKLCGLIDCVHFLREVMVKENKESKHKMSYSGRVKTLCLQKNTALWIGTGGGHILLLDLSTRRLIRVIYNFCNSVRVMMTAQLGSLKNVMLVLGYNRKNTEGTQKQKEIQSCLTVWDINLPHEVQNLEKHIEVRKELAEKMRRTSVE", "assay": "cryo-EM structure at […] Å; also ADP-Glo kinase inhibition"}, "[3]": {"target": "T1, LRRK2 (Leucine-rich repeat kinase 2)", "assay": "cryo-EM structure at […] Å; also ADP-Glo kinase inhibition (RCKWm)", "remark": "listed apart in the source"}}}
{"molecule": "Cc1ccc(C(=O)Nc2ccc(CN3CCN(C)CC3)c(C(F)(F)F)c2)cc1C#Cc1cnc2[nH]ncc2c1", "note": "[GZD-824]", "values": [{"measurement": "cryo-EM structure at 3.6 Å; also ADP-Glo kinase inhibition (RCKWm)", "setting": "[1]", "value": "GZD-824 and ponatinib are analogous compounds and bind to LRRK2 in a similar manner"}]}
{"molecule": "COc1cc(C(=O)N2CCC(N3CCN(C)CC3)CC2)ccc1Nc1ncc2c(n1)N(C)c1ccccc1C(=O)N2C", "note": "[LRRK2-IN-1]", "values": [{"measurement": "cryo-EM structure at 3.5 Å; also ADP-Glo kinase inhibition", "setting": "[2]", "value": "8U7H (LRRK2^RCKWm–GNE-7915) and 8FO7 (LRRK2^RCKWm–LRRK2-IN-1)"}]}
{"molecule": "CNC(=O)c1cc(Oc2ccc(NC(=O)Nc3cc(C(C)(C)C)nn3-c3ccc4ncccc4c3)c(F)c2)ccn1", "note": "[rebastinib]", "values": [{"measurement": "cryo-EM structure at 3.7 Å; also ADP-Glo kinase inhibition (RCKWm)", "setting": "[3]", "value": "8U8B (LRRK2–rebastinib), 8U8A (LRRK2–ponatinib), 8U7L (LRRK2–GZD-824)"}]}
